One data set relates to NIH3T3. Put plainly: Cell viability under paraquat oxidative stress. Format: cell-based, mouse. As for the experimental part:
Cells: NIH3T3 mouse fibroblasts and the N2a neuroblastoma cell line were obtained from the American Type Culture Collection and were validated by genomic PCR. Primary human fibroblasts (GM01651) were from Coriell Repository. All the cells lines were tested for mycoplasma contamination using DNA staining protocol with Hoechst 33258 dye. Knock-down of NCoR1 was done using lentiviral mediated shRNA (SHCLNG-NM_011308) from the Sigma Mission library following standard procedures. Efficiency of knock-down was tested by immunoblot. Cell viability was measured using the CellTiter-Blue kit (Promega) 24 h after the addition of the different stressors according to manufacturer's instructions.

Data set [1] relates to rd10 mice. Put plainly: rd10 mouse retinal degeneration, systemic (i.p.) administration. Format: in vivo. The text has this: Animals: C57BL/6J mice wild-type (WT) and homozygous for the Pde6 mutation (rd10 mouse model of retinal degeneration) were obtained from The Jackson Laboratory. C57BL/6 KFERQ-Dendra mice were generated by back-crossing FVB KFERQ-Dendra mice with wild-type C57BL/6 mice for 8 generations. Both male and female animals were used in this study in equal distribution groups. However, results from both sexes were pooled, because of absence of significant differences in any of the parameters analyzed after statistical analysis with a mixed model of two-way ANOVA sex and treatment as independent variables and the corresponding measure as dependent variable. All animals were housed in a barrier-controlled facility (19-23° C. 30-60% relative humidity; 12-h light/dark cycle) with ad libitum access to standard chow pellets and water. For animal administration of CA compounds, a formula containing 30% PEG 400, 65% glucose solution (5%), 5% Tween 80 was used to dissolve them. CA compounds were prepared freshly by adding 5% DMSO and sonicating for 1 h. Treatment of KFERQ-Dendra mice with the CA compounds was done by i.p. daily injection of 30 mg/kg bw or vehicle for three consecutive days and tissues collected 6 h after the last injection. In the case of rd10 mice, animals were daily injected from P18 to P25 with CA77 (40 mg/kg bw). At P26, mice were sacrificed, and eyes fixed overnight with 4% PFA in PBS at 4° C. for immunofluorescence or retinas dissected and immediately frozen for biochemistry. Distribution of animals in the vehicle or treatment group was done randomly. All animal studies and procedures complied with ethical regulations, were performed in accordance with the European Union guidelines and the ARVO Statement for the Use of Animals in Ophthalmic and Vision Research and were approved by the Institutional Animal Care and Use Committee at the Albert Einstein College of Medicine, the CSIC Bioetica Comite and approved by the Comunidad de Madrid, PROEX232/17.
Cryosections and immunofluorescence: Cryosections and immunofluorescence in retinal sections were performed as previously described 10. Primary antibodies used in this study were Transducin (Santacruz Biotechnologies) and Opsin R/G (Millipore). Sections were visualized by confocal microscopy (TCS SP5; Leica Microsystems).
ONL thickness and outer segment length quantification: For ONL thickness quantification, DAPI images were taken at 40× in a fluorescence microscope Multidimensional system Leica AF6000 LX coupled to DMI600B microscope and Hamamatsu CCD 9100-02 camera. At least two sections per animal were analyzed, preferably central sections. Eight images per retina equally distributed along the retina were acquired. Three measures were taken per image and ratio ONL/INL quantified with ImageJ tools. Leica LAS-X was used for image acquisition and ImageJ (v.2.1.0) was used for image processing. For OS length measures, fixed positions common to all pictures were considered and OS length was measured using ImageJ straight line tool.
Mice were dark adapted overnight, and subsequent manipulations were performed in dim red light. Mice were anesthetized with intraperitoneal injections of ketamine (95 mg/kg) and xylazine (5 mg/kg) solution and maintained on a heating pad at 37° C. Pupils were dilated with a drop of 1% tropicamide (Colircusi Tropicamida; Alcon Cusi). To optimize electrical recording, a topical drop (2% Methocel; Hetlingen) was instilled on each eye immediately before situating the corneal electrode. Flash-induced ERG responses were recorded from the right eye in response to light stimuli produced with a Ganzfeld stimulator. Light intensity was measured with a photometer at the level of the eye (Mavo Monitor USB; Nürenberg). Four to 64 consecutive stimuli were averaged with an interval between light flashes in scotopic conditions of 10 s for dim flashes and of up to 60 s for the highest intensity. Under photopic conditions, the interval between light flashes was fixed at 1 s. […]

The subject of data set [2] is rd10 mice. Description: rd10 mouse retinal degeneration, single intravitreal injection. Format: in vivo. As for the experimental part: Cryosections and immunofluorescence: Cryosections and immunofluorescence in retinal sections were performed as previously described 10. Primary antibodies used in this study were Transducin (Santacruz Biotechnologies) and Opsin R/G (Millipore). Sections were visualized by confocal microscopy (TCS SP5; Leica Microsystems). ONL thickness and outer segment length quantification: For ONL thickness quantification, DAPI images were taken at 40× in a fluorescence microscope Multidimensional system Leica AF6000 LX coupled to DMI600B microscope and Hamamatsu CCD 9100-02 camera. At least two sections per animal were analyzed, preferably central sections. Eight images per retina equally distributed along the retina were acquired. Three measures were taken per image and ratio ONL/INL quantified with ImageJ tools. Leica LAS-X was used for image acquisition and ImageJ (v.2.1.0) was used for image processing. For OS length measures, fixed positions common to all pictures were considered and OS length was measured using ImageJ straight line tool.

Where [3] appears, read: daily i.p. 40 mg/kg bw, p18 to p25.

For `Clc1ccc2c(c1)OCC(c1ccc(-c3ccccc3)cc1)=N2` [CA39], the protection against paraquat result in the data set with NIH3T3 (compound added after the insult, compared with AR7) is given as “significantly higher protection than AR7”. Moreover, the “cell death under paraquat” value in the data set on NIH3T3 (compound administered before the insult) was “reduced cell death”.

On to `CC(=O)Nc1ccc(C2=Nc3ccc(Cl)cc3OC2)cc1` [CA77], for which, in the data set on rd10 mice [1] (ERG at P33), the electroretinogram wave amplitude entry was “significantly higher amplitude of their b-mixed, b-phot and flicker waves”; the “other light responses (ERG)” value is “No significant differences”. The NCoR1 expression levels result in the data set with rd10 mice [1] (WT and rd10 mice, daily i.p. 40 mg/kg bw) is on record as “did not change the expression levels of NCoR1”. Moreover, in the data set on rd10 mice [1] (setting [3]), the “mRNA levels of photoreceptor-specific proteins (rhodopsin)” value is given as “Higher mRNA levels of photoreceptor-specific proteins”, the “outer nuclear layer (ONL) thickness” value was “significantly thicker outer nuclear layers”, the “retinal GFAP levels” value is given as “strikingly lower levels of GFAP” and the “retinal L2A levels (immunoblot)” value is on record as “significantly increasing retinal levels of the limiting CMA component”. For the same compound, the “length of outer segments of photoreceptors” value in the data set with rd10 mice [1] (daily i.p. 40 mg/kg bw, p18 to p25, vs vehicle) was “increased length of the outer segments of photoreceptors”. Also, the vision result in the data set with rd10 mice [2] (7 days after single intravitreal injection) was “preserved vision”. The “retinal ONL/INL ratio, OS and ONL preservation” value with rd10 mice [2] (7 days after single intravitreal injection (40 μM) at P18) was “thicker retinal ONL/INL ratio and better OS and ONL preservation”. Moreover, in the data set with rd10 mice [2] (single intravitreal injection (40 μM) at P18), the gliosis entry is “significantly improved”.
